The values below are quoted from earlier work in patent publication US20230111350A1, “Opthalmic Compositions for Treating Coronaviruses” (priority 2020, published 2023).

The conditions of series [1]: systemic administration; dependent on daily dose by weight.
The conditions of series [2]: relative to chloroquine.
A further series deals with SARS-CoV-2. Conditions: relative to chloroquine.

`CCN(CC)CCCC(C)Nc1ccnc2cc(Cl)ccc12` (stereo not shown) [chloroquine]: the “toxicity in ARPE-19 cells” value in the series on ARPE-19 is “vacuole formation and cell death”.
On to `Oc1c(I)cc(Cl)c2cccnc12` [clioquinol], for which, in the series on ARPE-19 (co-treatment with chloroquine, zinc-dependent, by reversing autophagy arrest), the “effect on chloroquine-associated toxicity in ARPE-19 cells” value is “attenuated the chloroquine-associated toxicity”.
With `CCN(CCO)CCCC(C)Nc1ccnc2cc(Cl)ccc12` (stereo not shown) [hydroxychloroquine], in series [1], the “prevalence of retinal toxicity” value is on record as at most 7.5%. In addition, the toxicity profile result in series [2] is recorded as “reduced toxicity profile”. The “potency at inhibiting SARS-CoV-2 in vitro” value in the series on SARS-CoV-2 was “more potent than chloroquine”. Besides, the “percentage of patients testing positive for COVID-19” value in the series with COVID-19 (after 6 days, 600 mg/day oral, untreated 90%) is reported as 25%. In the series with COVID-19 (oral administration), the viral load entry is “strong reduction in viral load”.
